# Data from ChEMBL document CHEMBL1142714, “Synthesis and pharmacological evaluation of huprine-tacrine heterodimers: subnanomolar dual binding site acetylcholinesterase inhibitors” (J Med Chem, 2005).
# How the values were obtained:
# [1] = target: Acetylcholinesterase (Homo sapiens, UniProt P22303)
# Description: Inhibitory concentration against Acetylcholinesterase from human erythrocytes
# [2] = target: T1, Acetylcholinesterase (Bos taurus, UniProt P23795); experiment: Inhibitory concentration against Acetylcholinesterase from bovine erythrocytes after 45 min incubation
# T1 sequence (P23795 whole entry): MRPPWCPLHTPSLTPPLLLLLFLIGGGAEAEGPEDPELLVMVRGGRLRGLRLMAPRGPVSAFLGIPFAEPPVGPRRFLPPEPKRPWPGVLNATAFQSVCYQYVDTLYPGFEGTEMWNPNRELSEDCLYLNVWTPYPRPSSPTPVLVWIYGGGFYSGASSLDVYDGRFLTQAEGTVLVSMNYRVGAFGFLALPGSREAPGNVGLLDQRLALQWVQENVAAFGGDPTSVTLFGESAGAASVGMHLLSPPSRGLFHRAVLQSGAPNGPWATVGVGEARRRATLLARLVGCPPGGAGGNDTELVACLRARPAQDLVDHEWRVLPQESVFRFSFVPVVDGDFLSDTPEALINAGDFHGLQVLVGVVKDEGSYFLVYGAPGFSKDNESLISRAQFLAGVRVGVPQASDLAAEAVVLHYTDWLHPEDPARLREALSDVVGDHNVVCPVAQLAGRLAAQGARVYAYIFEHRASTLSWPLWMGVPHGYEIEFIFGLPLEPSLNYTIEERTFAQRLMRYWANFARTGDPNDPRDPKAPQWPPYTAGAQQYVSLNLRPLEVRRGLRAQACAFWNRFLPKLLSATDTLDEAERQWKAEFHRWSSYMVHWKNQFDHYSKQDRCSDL
# [3] = target: Cholinesterase (Homo sapiens, UniProt P06276)
# Sequence of Cholinesterase (P06276 whole entry): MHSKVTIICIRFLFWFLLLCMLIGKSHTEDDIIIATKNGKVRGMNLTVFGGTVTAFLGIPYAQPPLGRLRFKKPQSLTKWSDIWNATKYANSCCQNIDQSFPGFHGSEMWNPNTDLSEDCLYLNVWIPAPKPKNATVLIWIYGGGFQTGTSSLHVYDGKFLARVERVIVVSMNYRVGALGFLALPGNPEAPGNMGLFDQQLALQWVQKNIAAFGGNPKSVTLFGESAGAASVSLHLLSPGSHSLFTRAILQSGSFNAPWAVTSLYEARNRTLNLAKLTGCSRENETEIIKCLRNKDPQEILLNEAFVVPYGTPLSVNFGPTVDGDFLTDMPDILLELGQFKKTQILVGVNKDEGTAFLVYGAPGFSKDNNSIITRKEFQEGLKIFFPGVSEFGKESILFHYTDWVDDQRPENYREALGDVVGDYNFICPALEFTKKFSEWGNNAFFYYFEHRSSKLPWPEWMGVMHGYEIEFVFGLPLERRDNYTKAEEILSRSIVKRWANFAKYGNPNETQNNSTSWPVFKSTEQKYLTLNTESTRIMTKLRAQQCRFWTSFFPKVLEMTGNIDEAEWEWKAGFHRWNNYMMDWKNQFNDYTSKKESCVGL
# Description: Inhibitory concentration against Butyrylcholinesterase from human erythrocytes
# [4] = target: T1, Acetylcholinesterase
# Sequence of Acetylcholinesterase (Homo sapiens, UniProt P22303) (P22303 whole entry): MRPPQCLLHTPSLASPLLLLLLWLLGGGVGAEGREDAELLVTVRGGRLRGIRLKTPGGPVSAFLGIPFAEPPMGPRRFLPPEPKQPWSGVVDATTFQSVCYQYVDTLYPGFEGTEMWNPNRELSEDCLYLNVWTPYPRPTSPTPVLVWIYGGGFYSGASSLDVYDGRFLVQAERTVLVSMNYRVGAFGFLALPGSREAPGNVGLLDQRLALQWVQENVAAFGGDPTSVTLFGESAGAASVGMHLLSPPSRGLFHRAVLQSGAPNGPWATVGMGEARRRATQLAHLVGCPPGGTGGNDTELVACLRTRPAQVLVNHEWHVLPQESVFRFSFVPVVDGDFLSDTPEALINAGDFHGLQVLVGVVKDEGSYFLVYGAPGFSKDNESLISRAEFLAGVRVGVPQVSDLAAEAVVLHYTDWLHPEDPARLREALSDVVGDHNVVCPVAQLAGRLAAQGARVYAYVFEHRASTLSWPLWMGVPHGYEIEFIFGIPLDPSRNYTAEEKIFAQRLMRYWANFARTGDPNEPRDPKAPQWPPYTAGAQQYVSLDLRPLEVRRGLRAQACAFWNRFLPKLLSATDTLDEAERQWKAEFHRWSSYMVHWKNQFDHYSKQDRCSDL
Compound,IC50 [1] [nM],IC50 [2] [nM],IC50 [3] [nM],IC50 [4] [nM]
CC1=C[C@@H]2Cc3nc4cc(Cl)ccc4c(NCCCN(C)CCCCNc4c5c(nc6cc(Cl)ccc46)CCCC5)c3[C@H](C1)C2,0.29,0.44,31.1,0.54
CC1=C[C@@H]2Cc3nc4cc(Cl)ccc4c(NCCCN(C)CCCCNc4c5c(nc6ccccc46)CCCC5)c3[C@H](C1)C2,0.32,0.26,16.4,0.33
CC1=CC2Cc3nc4cc(Cl)ccc4c(NCCCCCCCCNc4c5c(nc6ccccc46)CCCC5)c3C(C1)C2 (stereo unspecified),0.33,0.65,4.74,1.26
CCC1=CC2Cc3nc4ccccc4c(NCCCCCCCCNc4c5c(nc6ccccc46)CCCC5)c3C(C1)C2 (stereo unspecified),0.82,1.67,5.55,2.19
CC1=CC2Cc3nc4cc(Cl)ccc4c(NCCCCCCCNc4c5c(nc6cc(Cl)ccc46)CCCC5)c3C(C1)C2 (stereo unspecified),0.33,1.6,7.38,1.97
CC1=CC2Cc3nc4cc(Cl)ccc4c(NCCCCCCCCNc4c5c(nc6cc(Cl)ccc46)CCCC5)c3C(C1)C2 (stereo unspecified),0.4,1.31,7.8,2.09
CC1=CC2Cc3nc4cc(Cl)ccc4c(NCCCCCCNc4c5c(nc6cc(Cl)ccc46)CCCC5)c3C(C1)C2 (stereo unspecified),0.45,0.8,14,1.06
CC1=CC2Cc3nc4cc(Cl)ccc4c(NCCCCCCNc4c5c(nc6ccccc46)CCCC5)c3C(C1)C2 (stereo unspecified),0.5,0.27,7.69,0.4
CC1=CC2Cc3nc4cc(Cl)ccc4c(NCCCCCCCNc4c5c(nc6ccccc46)CCCC5)c3C(C1)C2 (stereo unspecified),0.34,0.36,6.7,0.48
